One data set deals with T1, IKK-complex (Homo sapiens, UniProt O14920+O15111+Q9Y6K9).
T1 construct: IKK-complex was immunoprecipitated with anti-NEMO-antibody; endogenous in cells; host or cells: HeLa
Kind of data set: Cellular IKK kinase assay: HeLa cells treated with compound, TNF alpha stimulation, IKK-complex immunoprecipitated with anti-NEMO-antibody, I kappaB peptide phosphorylation by alpha screen. It counts as cell-based. As to conditions: HeLa cells, compound 1 h, TNF alpha 20 ng/ml, alpha screen; read-out: IC50 for inhibition of IKK-activity (I kappaB peptide phosphorylation). Here is the method:
Kinase Assay Protocol: HeLa cells were maintained in Dulbecco's modified Eagle's medium (Invitrogen) supplemented with 10% fetal bovine serum, 2 mM L-glutamine, penicillin (50 units/ml) and streptomycin (50 μg/ml). 24 h before treatment with different compounds HeLa cells were plated at a density of 5×10^6 per well in 100-mm cell culture dishes to 90% confluences.
The cells were incubated with different drugs at the concentration indicated for 1 h, washed twice with PBS and stimulated with 20 ng/ml TNF alpha (Roche). After 7 min the cells were washed twice with ice cold PBS followed by scraping and transferring into a 1.5 ml microcentrifuge tube. After centrifugation by 2000 rpm for 2 min by 4° C. the PBS supernatant was removed and 200 μl Lyse-buffer (10 mM Hepes, pH 7.9, 0.1% NP40, 10 mM, 300 mM Sucrose, 10 mM KCl, 15 mM MgCl2, 1 mM DTT, 0.5 mM PMSF and antipain, aprotinin, leupeptin each 0.75 μg/ml (Sigma) was added to the pellet. The resuspended pellet was incubated on ice for 5 min and centrifuged at 13000 g for 30 s. The supernatant, cytosolic extract, was added to 200 μl TNT-buffer (200 mM NaCl, 20 mM Tris/HCl pH 7.5, 1% Triton X-100). Unspecific binding was blocked by incubation with 3 μg of normal rabbit IgG (Sigma) and 6 mg resuspended and prewashed Protein A Sepharose CI-4B (Pharmacia Biotech) for 30 min by 4° C. followed by immunoprecipitation for 1.5 h at 4° C. with 2 μg of anti-NEMO-antibody (Santa Cruz Biotechnology) and 6 mg resuspented and prewashed Protein A Sepharose CI-4B (Parmacia Biotech). […] 6.6 μl of detection-buffer (20 mM Hepes pH 7.5, 100 mM NaCl, 1% Tween, 0.1 mM BSA, 50 μg/ml Protein A-Acceptor beads, 250 μg/ml Streptavidin-Donor beads (both Perkin-Elmer), 4 nM anti-phospho-IKB antibody (Santa Cruz Biotechnology) was dispensed to each well. After incubation for 1.5 h the plate was measured by alpha screen reader (Perkin Elmer). […]

A further data set in a line: Solubility in PBS. Format: physicochemical.

Molecules are shown by their SMILES.

T1 sequence (O14920 whole entry): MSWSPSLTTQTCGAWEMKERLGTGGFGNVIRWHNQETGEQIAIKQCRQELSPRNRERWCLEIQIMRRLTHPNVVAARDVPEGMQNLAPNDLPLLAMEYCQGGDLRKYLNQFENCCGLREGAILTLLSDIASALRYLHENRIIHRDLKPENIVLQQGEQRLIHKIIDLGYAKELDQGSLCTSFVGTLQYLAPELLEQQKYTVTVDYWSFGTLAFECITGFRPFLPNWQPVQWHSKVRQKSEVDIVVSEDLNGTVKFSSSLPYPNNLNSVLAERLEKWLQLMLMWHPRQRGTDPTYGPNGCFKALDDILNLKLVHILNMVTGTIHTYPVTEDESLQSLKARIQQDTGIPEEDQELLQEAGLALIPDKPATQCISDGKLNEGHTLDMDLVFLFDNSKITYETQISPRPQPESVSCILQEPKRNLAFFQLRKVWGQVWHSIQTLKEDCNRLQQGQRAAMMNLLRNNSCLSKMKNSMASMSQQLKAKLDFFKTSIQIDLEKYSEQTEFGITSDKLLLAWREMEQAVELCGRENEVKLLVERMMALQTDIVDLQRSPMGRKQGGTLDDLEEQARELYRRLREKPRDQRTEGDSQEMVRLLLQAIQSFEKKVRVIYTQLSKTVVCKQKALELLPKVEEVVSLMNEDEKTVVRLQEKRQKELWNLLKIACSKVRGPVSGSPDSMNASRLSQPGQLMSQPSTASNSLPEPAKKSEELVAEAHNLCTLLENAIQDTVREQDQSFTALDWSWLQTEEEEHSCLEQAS
T1 sequence (O15111 whole entry): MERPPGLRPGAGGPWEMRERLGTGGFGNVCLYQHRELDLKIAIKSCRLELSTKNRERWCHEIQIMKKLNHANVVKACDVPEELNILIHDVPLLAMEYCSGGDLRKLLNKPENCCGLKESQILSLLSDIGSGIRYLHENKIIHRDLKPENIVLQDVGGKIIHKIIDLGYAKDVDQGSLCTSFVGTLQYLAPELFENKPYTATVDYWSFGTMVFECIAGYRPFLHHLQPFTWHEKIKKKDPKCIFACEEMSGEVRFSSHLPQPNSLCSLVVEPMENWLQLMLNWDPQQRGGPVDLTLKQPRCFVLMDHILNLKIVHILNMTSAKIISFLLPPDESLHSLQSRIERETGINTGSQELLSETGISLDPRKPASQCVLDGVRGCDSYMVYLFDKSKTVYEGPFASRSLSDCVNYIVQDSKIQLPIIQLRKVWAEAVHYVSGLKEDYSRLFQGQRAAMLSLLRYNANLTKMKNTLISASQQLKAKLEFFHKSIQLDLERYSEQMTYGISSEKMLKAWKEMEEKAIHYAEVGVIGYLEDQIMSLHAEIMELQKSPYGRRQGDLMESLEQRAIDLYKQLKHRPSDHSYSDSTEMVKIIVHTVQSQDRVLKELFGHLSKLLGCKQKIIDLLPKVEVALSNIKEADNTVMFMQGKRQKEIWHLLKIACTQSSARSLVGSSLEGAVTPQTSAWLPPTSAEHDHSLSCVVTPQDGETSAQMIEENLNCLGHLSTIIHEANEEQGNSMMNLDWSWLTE
T1 sequence (Q9Y6K9 whole entry): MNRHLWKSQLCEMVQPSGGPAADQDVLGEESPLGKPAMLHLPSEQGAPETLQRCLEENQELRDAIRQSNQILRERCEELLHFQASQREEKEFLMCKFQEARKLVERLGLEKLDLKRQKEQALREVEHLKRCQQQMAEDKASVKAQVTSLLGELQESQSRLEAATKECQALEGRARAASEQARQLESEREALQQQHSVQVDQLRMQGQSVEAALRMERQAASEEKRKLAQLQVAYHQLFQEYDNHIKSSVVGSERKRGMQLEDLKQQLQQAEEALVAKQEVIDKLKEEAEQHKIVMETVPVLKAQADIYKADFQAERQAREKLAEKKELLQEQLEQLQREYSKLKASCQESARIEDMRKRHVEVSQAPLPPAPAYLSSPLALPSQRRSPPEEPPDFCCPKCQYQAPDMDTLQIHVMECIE

On to `CCC(=O)C1=C(C)N=c2s/c(=C/c3cc(C)c(OCc4ccccc4Cl)c(I)c3)c(=O)n2C1c1ccc2c(c1)OCO2` (centres unmarked) [Compound 41], for which the IC50 at IKK-complex fell in the range of 10 to 100 µM. In addition, the “solubility in PBS” value in the data set “Solubility in PBS” is on record as “only partly soluble”.

The values are drawn from US20060194819A1, “Activation specific inhibitors of nf-kb and method of treating inflammatory processes in cardio-vascular diseases” (PROCORDE GMBH, priority 2003, published 2006).
